This passage reports Ki, Km and COMT inhibitory activity results from ChEMBL document CHEMBL1130076, “Synthesis and in vitro evaluation of two progressive series of bifunctional polyhydroxybenzamide catechol-O-methyltransferase inhibitors” (J Med Chem, 1997).

Data set [1] addresses T1, Catechol O-methyltransferase (Sus scrofa, UniProt Q99028).
T1 sequence (Q99028 whole entry): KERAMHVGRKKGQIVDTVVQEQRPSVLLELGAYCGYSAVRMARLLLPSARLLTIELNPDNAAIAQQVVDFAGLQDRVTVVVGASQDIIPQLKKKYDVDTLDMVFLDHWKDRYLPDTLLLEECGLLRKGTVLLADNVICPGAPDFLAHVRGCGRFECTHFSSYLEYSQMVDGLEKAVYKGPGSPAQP
Nature of the data set: In vitro inhibitory activity against Catechol-O-methyltransferase from porcine liver; Competitive mode of inhibition.

For data set [2], the target named is T1, Catechol O-methyltransferase. Nature of the data set: In vitro inhibitory activity against Catechol-O-methyltransferase from porcine liver; Uncompetitive mode of inhibition.
Compound in data set [3]: C[S+](CC[C@H](N)C(=O)[O-])C[C@H]1O[C@@H](n2cnc3c(N)ncnc32)[C@H](O)[C@@H]1O
As to the kind of experiment: (§1) In vitro inhibitory activity against Catechol-O-methyltransferase from porcine liver. Particulars: Sus scrofa.

Compound in data set [4]: COC(=O)c1cc(O)c(O)c(O)c1
Described as §1. As to conditions: Sus scrofa.

Compound in data set [5]: O=C(NCCNC(=O)c1ccc(O)c(O)c1)c1ccc(O)c(O)c1
As to the kind of experiment: (§2) In vitro inhibitory activity against Catechol-O-methyltransferase from porcine liver; No inhibitory action. As to conditions: Sus scrofa.

Compound in data set [6]: CCCNC(=O)c1ccc(O)c(O)c1
The description is as §2. As to conditions: Sus scrofa.

Compound in data set [7]: O=C(NCCCCCNC(=O)c1ccc(O)c(O)c1)c1ccc(O)c(O)c1
The description is as §2. Particulars: Sus scrofa.

Compound in data set [8]: O=C(NCCCCCCNC(=O)c1ccc(O)c(O)c1)c1ccc(O)c(O)c1
The description is as §2. Particulars: Sus scrofa.

As usually defined, the Ki is the dissociation constant of the complex between target and ligand, obtained from inhibition or displacement. A lower Ki goes with a stronger hold on the target. The Km is the concentration of substrate that gives half-maximal velocity.

The molecule `CCCNC(=O)c1cc(O)c(O)c(O)c1` registered a Ki in data set [1] of 0.5 µM.

Consider `O=C(NCCCCCNC(=O)c1cc(O)c(O)c(O)c1)c1cc(O)c(O)c(O)c1`, for which affinity in data set [2] was put at a Ki of 26.7 µM.

On to `O=C(NCCNC(=O)c1cc(O)c(O)c(O)c1)c1cc(O)c(O)c(O)c1`, for which, in data set [2], affinity was put at a Ki of 136 µM.

With `O=C(NCCCNC(=O)c1ccc(O)c(O)c1)c1ccc(O)c(O)c1`, the inhibitory constant (Ki) in data set [1] worked out at 0.3 µM.

In data set [2], `O=C(NCCCCCCNC(=O)c1cc(O)c(O)c(O)c1)c1cc(O)c(O)c(O)c1` came in with a Ki of 35 µM.

`O=C(NCCCNC(=O)c1cc(O)c(O)c(O)c1)c1cc(O)c(O)c(O)c1`: the affinity in data set [2] corresponds to a Ki of 6.6 µM.

B1: Catechol O-methyltransferase (Sus scrofa), Q99028 (protein)
chain: KERAMHVGRKKGQIVDTVVQEQRPSVLLELGAYCGYSAVRMARLLLPSARLLTIELNPDNAAIAQQVVDFAGLQDRVTVVVGASQDIIPQLKKKYDVDTLDMVFLDHWKDRYLPDTLLLEECGLLRKGTVLLADNVICPGAPDFLAHVRGCGRFECTHFSSYLEYSQMVDGLEKAVYKGPGSPAQP
Consider B1, for which the Michaelis constant (Km) was 44.6 µM in data set [3] and 25.5 µM in data set [4]. The COMT inhibitory activity entry in data set [5], in data set [6], in data set [7] and in data set [8] was “No inhibitory action” each time.
